# Source: US4292317A, “1,4-Dihydro-quinoline-3-carboxylic acid derivatives, process for their preparation and compositions containing them” (Laboratorie Roger Bellon, priority 1977, dated 1981)
# Assays:
# [1] = system: Pseudomonas aeruginosa No. 12; experiment: Systemic infection in mice; assay type: in vivo; conditions: po, 168 h, mice, p.o. at infection and 6 hours later, P. aeruginosa No. 12, 7 days
# Protocol: (§1) The activity of the compounds according to the invention against systemic infections in mice, caused by Staphylococcus 50,774, Streptococcus pyogenes A 65, Pseudomonas aeruginosa No. 12 and Escherichia coli P 5101, has been studied.
# (§2) The infections were set up by intraperitoneal injection of a suspension of the bacterial culture corresponding to the germ studied. The products were administered orally at the time of injection, and 6 hours later. […] Aureus and for 7 days for the other germs.
# (§3) Oxolinic acid was used as the reference substance.
# Staph. aureus 50,774 [2] = experiment: Systemic infection in mice; assay type: in vivo; conditions: Staphylococcus aureus, po, 336 h, mice, p.o. at infection and 6 hours later, Staph. aureus 50,774, 14 days
# Protocol: as §1, §2, §3
# Strept. pyogenes A. 65 [3] = experiment: Systemic infection in mice; assay type: in vivo; conditions: Streptococcus pyogenes, po, 168 h, mice, p.o. at infection and 6 hours later, Strept. pyogenes A. 65, 7 days
# Protocol: as §1, §2, §3
# Escherichia coli P 5101 [4] = experiment: Systemic infection in mice; assay type: in vivo; conditions: P5101, po, 168 h, mice, p.o. at infection and 6 hours later, E. coli P 5101, 7 days
# Protocol: as §1, §2, §3
# Salm. typhi 0901 = experiment: microbe, parasite or virus in culture; assay type: cell-based; conditions: Salmonella enterica, 18 h; Table III; Salm. typhi 0901
# Protocol: (§4) After sterilisation at 120° C., the pH was 6.8.
# (§5) The minimum inhibitory concentrations (M.I.C.) were determined by dilution of the test compounds in this mixture, the concentration ranging from 0.05 to 100 μg/cm^3 in a geometric progression with a factor of 2.
# (§6) The inoculation of the dishes was carried out by means of a multiple inoculator with 10^-3 dilutions of 18 hour old broth cultures.
# (§7) The dishes were placed in an oven at 37° C. and the readings were taken afer an incubation time of 18 hours. The M.I.C. was taken as the lowest concentration which inhibited a culture.
# in vivo = conditions: mouse, mice
# [5] = system: Pseudomonas aeruginosa No. 12; experiment: M.I.C. for germ used in experimental infection; assay type: cell-based; conditions: 18 h, Table 4, P. aeruginosa No. 12, read-out: M.I.C.
# Protocol: as §4, §5, §6, §7
# Staph. aureus 50,774 [6] = experiment: M.I.C. for germ used in experimental infection; assay type: cell-based; conditions: Staphylococcus aureus, 18 h; Table 4; Staph. aureus 50,774; read-out: M.I.C.
# Protocol: as §4, §5, §6, §7
# Strept. pyogenes A. 65 [7] = experiment: M.I.C. for germ used in experimental infection; assay type: cell-based; conditions: Streptococcus pyogenes, 18 h; Table 4; Strept. pyogenes A. 65; read-out: M.I.C.
# Protocol: as §4, §5, §6, §7
# Escherichia coli P 5101 [8] = experiment: M.I.C. for germ used in experimental infection; assay type: cell-based; conditions: P5101, 18 h, Table 4, E. coli P 5101, read-out: M.I.C.
# Protocol: as §4, §5, §6, §7
# Staph. 9.144 = experiment: M.I.C. in vitro, nutrient agar dilution; assay type: cell-based; conditions: 18 h; Table III; Staph. 9.144; read-out: M.I.C.
# Protocol: as §4, §5, §6, §7
# Pr. mirabilis Nig = experiment: M.I.C. in vitro, nutrient agar dilution; assay type: cell-based; conditions: Proteus mirabilis, 18 h; Table III; Pr. mirabilis Nig; read-out: M.I.C.
# Protocol: as §4, §5, §6, §7
# Arizona 6.211 = experiment: M.I.C. in vitro, nutrient agar dilution; assay type: cell-based; conditions: 18 h; Table III; Arizona 6.211; read-out: M.I.C.
# Protocol: as §4, §5, §6, §7
# S. oranienburg 1066 = experiment: M.I.C. in vitro, nutrient agar dilution; assay type: cell-based; conditions: Salmonella enterica, 18 h; Table III; S. oranienburg 1066; read-out: M.I.C.
# Protocol: as §4, §5, §6, §7
# B. subtilis = experiment: M.I.C. in vitro, nutrient agar dilution; assay type: cell-based; conditions: Bacillus subtilis, 18 h; Table III; B. Subtilis; read-out: M.I.C.
# Protocol: as §4, §5, §6, §7
# Strepto D.M. 19 = experiment: M.I.C. in vitro, nutrient agar dilution; assay type: cell-based; conditions: 18 h; Table III; Strepto D.M. 19; read-out: M.I.C.
# Protocol: as §4, §5, §6, §7
# Pr. vulgaris 12-53 = experiment: M.I.C. in vitro, nutrient agar dilution; assay type: cell-based; conditions: Proteus vulgaris, 1253, 18 h; Table III; Pr. vulgaris 12-53; read-out: M.I.C.
# Protocol: as §4, §5, §6, §7
# Klebs. pneum. 10.031 = experiment: M.I.C. in vitro, nutrient agar dilution; assay type: cell-based; conditions: 18 h; Table III; Klebs. pneum. 10.031; read-out: M.I.C.
# Protocol: as §4, §5, §6, §7
# S. enteritidis Danysz = experiment: M.I.C. in vitro, nutrient agar dilution; assay type: cell-based; conditions: Salmonella enterica, 18 h; Table III; S. enteritidis Danysz; read-out: M.I.C.
# Protocol: as §4, §5, §6, §7
# Ps. aeruginosa A.22 = experiment: M.I.C. in vitro, nutrient agar dilution; assay type: cell-based; conditions: Pseudomonas aeruginosa, 18 h; Table III; Ps. aeruginosa A.22; read-out: M.I.C.
# Protocol: as §4, §5, §6, §7
# Esch. coli 95 I.S.M. = experiment: M.I.C. in vitro, nutrient agar dilution; assay type: cell-based; conditions: Escherichia coli, 18 h; Table III; Esch. coli 95 I.S.M.; read-out: M.I.C.
# Protocol: as §4, §5, §6, §7
# Strepto A 561 = experiment: M.I.C. in vitro, nutrient agar dilution; assay type: cell-based; conditions: 18 h; Table III; Strepto A 561
# Protocol: as §4, §5, §6, §7
# Sh. sonnei I.P.S. = experiment: M.I.C. in vitro, nutrient agar dilution; assay type: cell-based; conditions: Shigella sonnei, 18 h; Table III; Sh. sonnei I.P.S.; read-out: M.I.C.
# Protocol: as §4, §5, §6, §7
# Pr. morganii A.236 = experiment: M.I.C. in vitro, nutrient agar dilution; assay type: cell-based; conditions: Morganella morganii, 18 h; Table III; Pr. morganii A. 236; read-out: M.I.C.
# Protocol: as §4, §5, §6, §7
# Staph. 209 P = experiment: M.I.C. in vitro, nutrient agar dilution; assay type: cell-based; conditions: 18 h; Table III; Staph. 209 P; read-out: M.I.C.
# Protocol: as §4, §5, §6, §7
# Providentia 0223 = experiment: M.I.C. in vitro, nutrient agar dilution; assay type: cell-based; conditions: 18 h; Table III; Providentia 0223; read-out: M.I.C.
# Protocol: as §4, §5, §6, §7
# Serratia = experiment: M.I.C. in vitro, nutrient agar dilution; assay type: cell-based; conditions: 18 h, Table III, read-out: M.I.C.
# Protocol: as §4, §5, §6, §7
# Esch. coli 111 B4 = experiment: M.I.C. in vitro, nutrient agar dilution; assay type: cell-based; conditions: Escherichia coli, 18 h; Table III; Esch. coli 111 B4
# Protocol: as §4, §5, §6, §7
# Esch. coli 54.127 O.M.S. = experiment: M.I.C. in vitro, nutrient agar dilution; assay type: cell-based; conditions: Escherichia coli, 18 h; Table III; Esch. coli 54.127 O.M.S.; read-out: M.I.C.
# Protocol: as §4, §5, §6, §7
# Bord. bronchis. 4.617 = experiment: M.I.C. in vitro, nutrient agar dilution; assay type: cell-based; conditions: 18 h; Table III; Bord. bronchis. 4.617; read-out: M.I.C.
# Protocol: as §4, §5, §6, §7
# Ps. aeruginosa 72.345 = experiment: M.I.C. in vitro, nutrient agar dilution; assay type: cell-based; conditions: Pseudomonas aeruginosa, 18 h; Table III; Pd. aeruginosa 72.345; read-out: M.I.C.
# Protocol: as §4, §5, §6, §7
compound,measurement,setting,value
"C=CCN1CCN(c2cc3c(cc2F)c(=O)c(C(=O)O)cn3CC)CC1 [Example 23, 7-(4-Allylpiperazinyl)-1-ethyl-6-fluoro-4-oxo-1,4-dihydro-quinoline-3-carboxylic acid]",ED50,[1]; read-out: ED50,13.3 mg/kg
same,ED90,[1]; read-out: ED90,26.9 mg/kg
same,ED50,"Staph. aureus 50,774 [2]; read-out: ED50",5.2 mg/kg
same,ED90,"Staph. aureus 50,774 [2]; read-out: ED90",17 mg/kg
same,ED50,Strept. pyogenes A. 65 [3]; read-out: ED50,64.7 mg/kg
same,ED90,Strept. pyogenes A. 65 [3]; read-out: ED90,130 mg/kg
same,ED50,Escherichia coli P 5101 [4]; read-out: ED50,2.9 mg/kg
same,ED90,Escherichia coli P 5101 [4]; read-out: ED90,5.2 mg/kg
same,MIC,Salm. typhi 0901,0.1 to 0.4 µg/mL
same,LD50,in vivo; iv,177 mg/kg
same,LD50,in vivo; po,> 2000 mg/kg
same,MIC,[5],6.25 µg/mL
same,MIC,"Staph. aureus 50,774 [6]",0.39 µg/mL
same,MIC,Strept. pyogenes A. 65 [7],3.13 µg/mL
same,MIC,Escherichia coli P 5101 [8],0.39 µg/mL
same,MIC,Staph. 9.144,0.2 µg/mL
same,MIC,Pr. mirabilis Nig,0.4 to 0.8 µg/mL
same,MIC,Arizona 6.211,0.2 to 0.8 µg/mL
same,MIC,S. oranienburg 1066,6.2 to 12.5 µg/mL
same,MIC,B. subtilis,0.1 to 0.2 µg/mL
same,MIC,Strepto D.M. 19,0.8 to 3.15 µg/mL
same,MIC,Pr. vulgaris 12-53,0.2 to 0.4 µg/mL
same,MIC,Klebs. pneum. 10.031,0.1 to 0.2 µg/mL
same,MIC,S. enteritidis Danysz,0.4 µg/mL
same,MIC,Ps. aeruginosa A.22,1.6 to 3.12 µg/mL
same,MIC,Esch. coli 95 I.S.M.,0.1 to 0.4 µg/mL
same,MIC,Strepto A 561,1.6 to 6.2 µg/mL
same,MIC,Sh. sonnei I.P.S.,0.1 to 0.2 µg/mL
same,MIC,Pr. morganii A.236,0.2 µg/mL
same,MIC,Staph. 209 P,0.1 to 0.2 µg/mL
same,MIC,Providentia 0223,1.6 to 6.2 µg/mL
same,MIC,Serratia,0.025 µg/mL
same,MIC,Esch. coli 111 B4,0.2 to 0.8 µg/mL
same,MIC,Esch. coli 54.127 O.M.S.,0.1 to 0.8 µg/mL
same,MIC,Bord. bronchis. 4.617,3.12 µg/mL
same,MIC,Ps. aeruginosa 72.345,3.12 µg/mL
